What all share (experiment): biochemical
Experiment [1] addresses D(3) dopamine receptor (Homo sapiens, UniProt P35462).
Description: Displacement of [3H]spiperone from human Dopamine receptor D3 expressed in HEK293 cells
Experiment [2] concerns the target D(2) dopamine receptor (Homo sapiens, UniProt P14416).
Description: Displacement of [3H]spiperone from human Dopamine receptor D2 expressed in CHO cells
For experiment [3], the target named is T1, D(4) dopamine receptor (Homo sapiens, UniProt P21917).
T1 sequence (P21917 whole entry): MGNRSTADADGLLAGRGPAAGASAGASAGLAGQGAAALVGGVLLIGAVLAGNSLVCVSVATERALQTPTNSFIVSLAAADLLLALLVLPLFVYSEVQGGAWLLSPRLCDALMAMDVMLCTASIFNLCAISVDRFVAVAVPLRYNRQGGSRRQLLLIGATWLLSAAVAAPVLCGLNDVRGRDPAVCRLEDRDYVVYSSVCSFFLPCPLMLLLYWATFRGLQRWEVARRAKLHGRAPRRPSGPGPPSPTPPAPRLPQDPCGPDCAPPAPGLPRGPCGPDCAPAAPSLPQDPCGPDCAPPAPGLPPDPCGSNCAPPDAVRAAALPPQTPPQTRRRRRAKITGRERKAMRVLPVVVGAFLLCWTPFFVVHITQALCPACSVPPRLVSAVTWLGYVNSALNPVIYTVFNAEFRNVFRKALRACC
Description: Displacement of [3H]spiperone from human Dopamine receptor D4 expressed in HEK293 cells

Sequence of D(3) dopamine receptor (P35462 whole entry): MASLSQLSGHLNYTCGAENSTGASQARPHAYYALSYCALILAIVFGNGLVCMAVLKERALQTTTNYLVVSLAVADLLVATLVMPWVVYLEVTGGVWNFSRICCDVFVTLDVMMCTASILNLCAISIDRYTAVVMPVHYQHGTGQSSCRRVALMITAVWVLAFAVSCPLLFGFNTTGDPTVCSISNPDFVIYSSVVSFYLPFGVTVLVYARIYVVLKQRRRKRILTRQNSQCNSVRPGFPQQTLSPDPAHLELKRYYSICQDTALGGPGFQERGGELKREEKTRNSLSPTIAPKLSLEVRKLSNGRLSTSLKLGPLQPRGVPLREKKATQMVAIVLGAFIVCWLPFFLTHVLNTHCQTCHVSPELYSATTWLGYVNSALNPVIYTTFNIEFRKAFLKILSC
Sequence of D(2) dopamine receptor (P14416 whole entry): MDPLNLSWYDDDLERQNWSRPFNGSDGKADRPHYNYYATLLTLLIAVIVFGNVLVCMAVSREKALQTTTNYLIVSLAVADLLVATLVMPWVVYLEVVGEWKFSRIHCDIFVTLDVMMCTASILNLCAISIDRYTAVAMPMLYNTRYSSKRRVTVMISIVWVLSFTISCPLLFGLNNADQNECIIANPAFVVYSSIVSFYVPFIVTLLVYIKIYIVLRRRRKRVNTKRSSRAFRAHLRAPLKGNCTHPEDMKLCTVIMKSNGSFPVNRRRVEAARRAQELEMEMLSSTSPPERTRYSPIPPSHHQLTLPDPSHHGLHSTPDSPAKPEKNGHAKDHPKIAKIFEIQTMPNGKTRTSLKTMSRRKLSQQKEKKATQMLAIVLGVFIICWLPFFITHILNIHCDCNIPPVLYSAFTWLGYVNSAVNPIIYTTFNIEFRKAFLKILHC

On to `c1ccc(CN2CCC(n3nccc3-c3ccccc3)CC2)cc1`, for which the inhibitory constant (Ki) in experiment [1] was determined as 810 nM; in experiment [2] it was 510 nM; in experiment [3], 15 nM.

In the case of `Cc1c(-c2ccccc2)cnn1C1CCN(Cc2cccc(Cl)c2)CC1`, the Ki in experiment [1] came out at 820 nM; in experiment [2], 370 nM; in experiment [3], 3.1 nM.

On to `Cc1c(-c2ccccc2)cnn1C1CCN(Cc2cccc(C#N)c2)CC1`, for which the inhibitory constant (Ki) in experiment [1] is 4400 nM; in experiment [2], greater than 1700 nM; in experiment [3] it was 5.2 nM.

Consider `c1ccc(CN2CCC(n3cc(-c4ccccc4)nn3)CC2)cc1`, for which the Ki was 1300 nM in experiment [1], 460 nM in experiment [2] and 32 nM in experiment [3].

As for `c1ccc(CN2CCC(n3nnc(-c4ccccc4)n3)CC2)cc1`, the Ki worked out at 1400 nM in experiment [1], 1100 nM in experiment [2] and 27 nM in experiment [3].

Turning to `c1ccc(CN2CCC(n3nnnc3-c3ccccc3)CC2)cc1`, the results for the Ki in experiment [1], in experiment [2] and in experiment [3] were greater than 4400 nM, greater than 1800 nM and 1200 nM, respectively.

As for `Cc1cc(-c2ccccc2)n(C2CCN(Cc3ccccc3)CC2)n1`, the Ki amounted to 3000 nM in experiment [1], 310 nM in experiment [2] and 140 nM in experiment [3].

`Cc1c(-c2ccccc2)cnn1C1CCN(Cc2ccccc2)CC1`: the values for the Ki in experiment [1], in experiment [2] and in experiment [3] were 450 nM, 140 nM and 2.5 nM, respectively.

For `Cc1nnn(C2CCN(Cc3ccccc3)CC2)c1-c1ccccc1`, the inhibition constant Ki was found to be 2200 nM in experiment [1], 1200 nM in experiment [2] and 18 nM in experiment [3].

Consider `Cc1nn(C2CCN(Cc3cccc(C#N)c3)CC2)cc1-c1ccccc1`, for which the values for the inhibition constant (Ki) in experiment [1], in experiment [2] and in experiment [3] were 260 nM, 15 nM and 1.2 nM, respectively.

As to `Cc1nn(C2CCN(Cc3ccccc3)CC2)cc1-c1ccccc1`, the Ki in experiment [1] amounted to 28 nM; in experiment [2], 6.1 nM; in experiment [3], 0.39 nM.

Regarding `Cc1c(-c2ccccc2)n[nH]c1C1CCN(Cc2ccccc2)CC1`, the Ki in experiment [1] amounted to 450 nM; in experiment [2], 90 nM; in experiment [3], 4.7 nM.

For `Cc1c(-c2ccccc2)nnn1C1CCN(Cc2ccccc2)CC1`, the figures for the Ki in experiment [1], in experiment [2] and in experiment [3] were 2500 nM, 1600 nM and 17 nM, respectively.

`c1ccc(CN2CCC(n3cnc(-c4ccccc4)c3)CC2)cc1`: the Ki in experiment [1] is 740 nM; in experiment [2], 450 nM; in experiment [3], 40 nM.

Regarding `Cc1nn(C2CCN(Cc3cccc(Cl)c3)CC2)cc1-c1ccccc1`, the inhibition constant (Ki) in experiment [1] worked out at 120 nM; in experiment [2], 15 nM; in experiment [3], 3.1 nM.

The values above are taken from ChEMBL document CHEMBL1132043, “4-N-linked-heterocyclic piperidine derivatives with high affinity and selectivity for human dopamine D4 receptors” (Bioorg Med Chem Lett, 1999).
